Reference: patent publication US20260365698A1, “STAPLED PEPTIDES FOR SENSITIZATION OF CANCER TO TREATMENT” (Purdue Research Foundation, priority 2022, published 2026)
“Also recorded” adds a separate entry of the source. Bridge positions count the residues as written; N and C are the ends. Square brackets hold non-standard residues; d marks the D form. Peptide text beside a SMILES is read from it. S5 = C=CCCC[C@](C)(N)C(=O)O

Experiments:
proteinase K = assay: Proteinase K peptide stability assay; details: 55 μM peptide, 10 μg/mL proteinase K; some significant degradation
Description: Data are from three independent replicates with standard error indicated. Scale bar indicates 50 μm.
Peptide stability assays were performed using the protocols described in Cromm et al., Protease-resistant and cell-permeable double-stapled peptides targeting the Rab8a GTPase, ACS Chemical Biology 11(8): 2375-2382 (2016). Briefly, 55 μM of peptide was incubated with 10 μg/mL proteinase K for the indicated timepoints. At the end of each time point, 50 μL of the reaction mixture were quenched in 100 μL of a 1:1 mixture acetonitrile/water+1% formic acid (FA). Samples were injected and analyzed on a Triple quad. Analysis was done using an Agilent Technologies 1200 Series attached to an Agilent Technologies 6460 Triple Quad LC/MS. Analysis was performed with a ZORBAX XDB-C18 […], 2.1×50 mm column (Agilent Technologies, Inc., Santa Clara, CA). Eluent A: H2O with 0.1% FA. Eluent B: MeCN with 0.1% FA. Purity analysis utilized the gradient as follows: (A:B, 0.3 mL/min): 95:5, 0 minutes; 95:5, 1 minute; 5:95, 5 minutes; 5:95, 8 minutes: 95:5, 8.5 minutes; 95:5, 12.5 minutes.

Nrf2/MafG heterodimer = Nrf2/MafG heterodimer (Homo sapiens, UniProt O15525); assay: Split luciferase assay with purified MafG and Nrf2; assay type: biochemical; details: in vitro, FIG. 6A; listed as NIS
From the text: Data shown are from three technical replicates with standard error. The data are representative of three independent experiments. *p<0.05, **p<0.01, ***p<0.001, student's T-test compared to dimethyl sulfoxide (DMSO).

[1] = test system: thioredoxin reductase 1 (TrxR1) in A549 cells; assay: Western blot, TrxR1 expression; assay type: cell-based; details: 72 hours
Description: After confirming the in vitro activity of NIS, its mechanism in a cellular context was examined. Western blots were carried out in the A549 non-small cell lung cancer cell line to show the effects of N1S inhibition on the protein expression of Nrf2-regulated proteins. Briefly, A549 cells were seeded in 6-well plates at a concentration of 2×10^5 cells/ml in 2.5 ml. Cells were treated the next day with either peptide at the desired concentration or DMSO. After a 72-hour incubation, cells were collected by trypsinization and centrifugation. Pellets were washed with PBS three times before the pellet was resuspended in 250 μL of RIPA buffer containing protease inhibitor and kept on ice for 30 minutes with intermittent vortex. The cells were then spun at 16,000 g for 5 minutes, and the supernatant was collected. Protein concentration of lysate was normalized with Pierce BCA Protein Assay Kit (Thermo Fisher Scientific, Waltham, MA). Equal volumes of lysate were mixed with 2× Laemmli sample buffer before separating on 4-15% Mini Protean TGX SDS-PAGE (Bio-Rad Laboratories, Hercules, CA). […]
ImageJ was used for quantification of all bands. Primary antibodies: TrxR1 (Santa Cruz Biotechnology, Dallas, TX), sc-28321, 1:100 dilution (~55 kDa band analyzed); j-actin (Cell Signaling Technology, Inc., Danvers, MA), #3700, 1:1000. […]

[2] = test system: glutathione (GSH) in A549 cells; assay: GSH-Glo glutathione quantification; assay type: cell-based; details: 24 hours
Description: Data are from three independent experiments with standard deviation. ****p<0.0001, one-way ANOVA.
The manufacturer's instructions were followed. Cells were plated at a density of 20,000 cells/ml and treated with various concentrations of NIS for 24 hours.

[3] = test system: A549 non-small cell lung cancer cells; assay: MTT assay / live cell growth, combination with cisplatin; assay type: cell-based
Description: Percent dead in red color indicates higher percentage of death. Data are representative of three independent replicates.
The ability of compound N1S to increase sensitivity to chemotherapeutics was examined. A549 non-small cell lung cancer cells were seeded into a Corning® 96-Well Cell Culture Plate (clear, sterile, non-treated) and incubated for 24 hours. The cells were treated with cisplatin alone, compound NIS alone, or in combination. Immediately following treatment, the cells were placed into an Incucyte® S3 Live-Cell Analysis Instrument (Sartorius AG, Gottingen, Germany) and imaged every two hours for three days. The Incucyte® S3's analytical software was used to calculate cell confluency at each time point. Synergy was determined using the Chou-Talalay method.
Additionally, an MTT assay was performed on the plate of cells from the Incucyte® study, and a separate, identical plate of cells was incubated for 24 hours. MTT reagent (20 μL of 5 mM stock) was added to each well and incubated for three hours at 37 °C. Following incubation, the plate was spun down at 2,500 rpm for five minutes at room temperature and then aspirated to remove the media. […] The absorbance of each well was measured at 570 nm using a plate reader (Molecular Devices SpectraMax® iD5 Multi-Mode Microplate Reader). […]

Hemolysis assay = assay type: cell-based; details: red blood cells
Description: (§1) Finally, a hemolysis assay was performed based on a method described in Hostetler et al. (2021), supra. The peptides were tested at a final concentration of 100 μM and an average of 0.3% hemolysis was observed (data not shown).

red blood cells = assay: Hemolysis assay; assay type: cell-based; details: 100 μM
Description: as §1

Sequence of Nrf2/MafG heterodimer (O15525 whole entry, one chain of several): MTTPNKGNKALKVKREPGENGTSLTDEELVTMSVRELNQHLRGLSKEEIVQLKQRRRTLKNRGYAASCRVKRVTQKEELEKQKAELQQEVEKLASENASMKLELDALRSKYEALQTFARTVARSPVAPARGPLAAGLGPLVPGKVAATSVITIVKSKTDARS

In the case of `CC[C@H](C)[C@H](NC(C)=O)C(=O)N[C@H](C(=O)N[C@@H](CCC(=O)O)C(=O)N[C@@H](CC(C)C)C(=O)N[C@@H](CCC(=O)O)C(=O)N[C@@]1(C)CCCC=CCCC[C@@](C)(C(=O)N[C@@H](CC(C)C)C(=O)N[C@@H](CCCCN)C(=O)N[C@@H](CC(=O)O)C(=O)N[C@@H](CCC(=O)O)C(=O)N[C@@H](CCCCN)C(=O)N[C@@H](CCC(=O)O)C(N)=O)NC(=O)[C@H](CC(=O)O)NC(=O)[C@H](CC(C)C)NC(=O)[C@H](CC(=O)O)NC1=O)C(C)C` [N1S] (Ac-IVELE[S5]DLD[S5]LKDEKE-NH2; staple 6-10), the “time at which significant degradation starts” value (proteinase K) was 24 h, the “inhibition of dimerization of Nrf2 with MafG” value (Nrf2/MafG heterodimer) was “inhibiting dimerization of Nrf2 with MagF in vitro in a dose-dependent manner; also recorded: inhibits its dimerization with Nrf2” and the TrxR1 protein expression [1] was “decrease”. For the same compound, the “glutathione (GSH) levels” value [2] was “Significant reductions”, the “growth compared to either treatment alone” value ([3]; 50 μM N1S combined with 6 μM cisplatin) was “greatly reduced levels of growth” and the “sensitization of cancer cell lines to chemotherapeutics” value ([3]; combination with cisplatin) was “can greatly sensitize cancer cell lines to chemotherapeutics”. For the same compound, the hemolysis at 100 µM (Hemolysis assay) was 0.3% and the “toxicity to red blood cells” value (red blood cells) was “no toxicity”.
